Source: a compilation of properties of binary mixtures (doi:10.1016/j.jct.2012.02.027)

Experiment: xn = mol fraction of the nth substance listed
Conditions: 101 kPa

CC(=O)[O-].CC[n+]1ccn(C)c1 + O
viscosity [mPa·s]
Conditions	298.15 K	313.15 K	328.15 K	343.15 K
x2 = 0	–	57.7	30.3	18.1
x2 = 0.0992	–	49.5	–	16.46
x2 = 0.222	89.2	42.3	23.49	–
x2 = 0.3233	73	36	20.48	13.21
x2 = 0.4207	–	30.2	–	11.11
x2 = 0.5408	–	–	13.85	–
x2 = 0.6135	–	19.09	11.44	7.48
x2 = 0.6805	28.8	15.63	–	–
x2 = 0.7482	21.9	11.99	7.32	4.87
x2 = 0.8134	15.44	8.51	–	3.57
x2 = 0.9067	6.16	3.74	2.54	1.81

CC[n+]1ccn(C)c1.N#C[N-]C#N + O
viscosity [mPa·s]
Conditions	298.15 K	313.15 K	328.15 K	343.15 K
x2 = 0	–	10.07	7.26	–
x2 = 0.1299	12.78	8.71	6.33	4.84
x2 = 0.2248	–	–	5.65	4.34
x2 = 0.3042	–	7.04	5.11	3.94
x2 = 0.4308	–	5.8	4.3	3.33
x2 = 0.5429	6.96	4.81	3.58	2.78
x2 = 0.6534	5.41	3.81	2.84	2.23
x2 = 0.7355	4.41	3.11	2.32	1.8
x2 = 0.7944	–	2.56	–	1.48
x2 = 0.8803	–	–	1.31	1.04
x2 = 0.953	1.47	–	0.82	0.66

CCO + CC[n+]1ccn(C)c1.N#C[N-]C#N
x1 = 1
Conditions	viscosity [mPa·s]
298.15 K	1.09
343.15 K	0.5

O + CC[n+]1ccn(C)c1.N#C[N-]C#N
Conditions	viscosity [mPa·s]
298.15 K, x1 = 1	0.89

CC(=O)[O-].CC[n+]1ccn(C)c1 + CCO
viscosity [mPa·s]
Conditions	298.15 K	313.15 K	328.15 K	343.15 K
x2 = 0	132.9	57.7	–	18.1
x2 = 0.1059	92.3	–	24.1	–
x2 = 0.1638	75	36.9	21.14	13.51
x2 = 0.2471	54.2	–	17.22	11.24
x2 = 0.3504	35.2	20.3	12.77	–
x2 = 0.4165	26.5	16.06	10.47	–
x2 = 0.4824	19.82	12.48	8.44	6.05
x2 = 0.5572	14.11	–	6.48	4.76
x2 = 0.6646	8.27	5.79	4.27	3.27
x2 = 0.7494	5.35	–	2.96	2.33
x2 = 0.8666	–	2.02	1.59	1.28

CC[n+]1ccn(C)c1.N#C[N-]C#N + CCO
viscosity [mPa·s]
Conditions	298.15 K	313.15 K	328.15 K	343.15 K
x2 = 0	14.9	–	–	5.48
x2 = 0.102	12.69	8.69	6.32	4.85
x2 = 0.1981	10.8	7.53	5.5	–
x2 = 0.279	9.27	6.58	4.86	3.81
x2 = 0.3596	7.85	–	–	3.37
x2 = 0.4741	6.04	4.45	3.47	2.76
x2 = 0.6028	–	3.31	2.59	2.13
x2 = 0.6867	3.47	2.65	2.09	1.7
x2 = 0.7678	–	2.1	1.67	1.37
x2 = 0.8503	2.08	1.63	1.3	1.1
x2 = 0.9327	1.53	1.19	0.93	0.75

CCO + CC(=O)[O-].CC[n+]1ccn(C)c1
x1 = 1
Conditions	viscosity [mPa·s]
298.15 K	1.09
313.15 K	0.83
328.15 K	0.64
343.15 K	0.5

O + CC(=O)[O-].CC[n+]1ccn(C)c1
x1 = 1
Conditions	viscosity [mPa·s]
328.15 K	0.51
343.15 K	0.41
